Laboratory results taken from patent US7291601B1, “Arginine-rich anti-vascular endothelial growth factor peptides that inhibit growth and metastasis of human tumor cells by blocking angiogenesis” (Korea Greencross Corp., priority 1999, dated 2007).

Experiments:
[1] = target: T1, VEGF (Homo sapiens, UniProt P15692); test: 125I-labeled VEGF association with peptides fixed on ELISA plate, competition; type: binding; details: determined from IC50: KD=IC50−[non-labeled Competitor]; fixed peptide 100 ng/well; read-out: dissociation constant (KD) between VEGF and peptide
T1 sequence (P15692 27-191 isoform P15692-4): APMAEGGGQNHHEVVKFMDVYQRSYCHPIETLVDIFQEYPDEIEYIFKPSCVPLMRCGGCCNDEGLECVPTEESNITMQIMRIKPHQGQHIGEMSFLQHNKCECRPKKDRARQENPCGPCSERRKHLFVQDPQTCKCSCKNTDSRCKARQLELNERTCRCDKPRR
Procedure: To verify the postulated mechanism in which the screened peptides might be associated directly with VEGF so as to inhibit VEGF from binding to its receptors present on the surface of vascular endothelial cells, the following experiments were conducted. Each of the hexa-peptides was fixed on a 96-well ELISA plate at a concentration of 100 ng/well in such a manner that a 20% acetic acid solution containing each peptide was dried in air. The plate was treated three times with a phosphate buffered saline containing 0.1% albumin for 3 min each time. A solution of ^125I-labeled VEGF in the same phosphate buffered saline was added to the plate at a concentration of 0.2 ng/well and incubated at 37° C. for 1 hour to associate the labeled VEGF with the peptides. To remove the […] remaining unassociated, the plate washed four times with the same phosphate buffered saline for 3 min per each time, followed by measuring radioactivity with the aid of a γ-counter. As for the non-specific binding, it was determined by incubation in the presence of either a mixture of the labeled VEGF and non-labeled VEGF or a mixture of the fixed peptide and unfixed peptide in a molar ratio of 1:100. This was set as a negative control.
With reference to FIG. 7, radioactivity measured from ^125I-labeled VEGF associated with fixed peptides is plotted versus molar ratios of a competitor, such as non-labeled VEGF or free peptides, to its counterpart. […] The dissociation constant (KD) between VEGF and each peptide was determined using the IC50) value according to the following formula (De Blasi, A. et al., Trends Pharmacol. Sci., 10, 227 (1989)). KD=IC50−[non-labeled Competitor]

[2] = tested on: HM7 (human colon carcinoma cell line); test: Subcutaneous HM7 tumor growth in athymic nude mice; type: in vivo; details: after 15 days of subcutaneous injection
Procedure: From the next day, a solution of each peptide in PBS (0.5 μg/100 μl/day) was subcutaneously injected to the mice for 15 days. Sizes of the tumors thus formed were periodically measured while tumor volumes were calculated according to the following formula: Tumor Size=0.5×(Diameter)^2×length

[3] = target: T2, VEGF109 (Homo sapiens, UniProt P15692); test: Inhibition of labeled VEGF109 binding to its receptors; details: FIG. 9
T2 construct: made in house; host or cells: E. coli BL21(DE3)pLysS, inclusion bodies
T2 sequence (P15692 27-135 isoform P15692-4): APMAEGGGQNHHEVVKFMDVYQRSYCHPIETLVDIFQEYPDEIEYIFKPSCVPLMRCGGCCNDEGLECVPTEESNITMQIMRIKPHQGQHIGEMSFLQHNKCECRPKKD
From the text: (§1) In order to verify this postulation, Sequence 1 (RRKRRR) was examined for the common binding domain on VEGF because it inhibited the binding of VEGF to its receptors at the highest efficiency. First, appropriate primers were synthesized and used to amplify various cDNAs coding for VEGF165, VEGF121, VEFG8-121, VEGF109, and VEGF8-109 while a human liver cDNA library (Clontech) served as a template. After being inserted to plasmid pRSET A (Invitrogen), the cDNAs were sequenced. The resulting five pRSET A vectors, each having one of the five cDNAs, were introduced into an expression strain (BL21(DE3)pLysS) containing T7 RNA polymerase. […] The purified VEGFs were quantified by use of a protein assay reagent (Bio-Rad) and all found to bind to VEGF receptors and exert growth hormone activity on HUVEC. […] For use, each labeled protein was quantified by ELISA (enzyme-linked immunosorbent assay) using a mouse monoclonal anti-VEGF antibody (R&D systems).
(§2) Each peptide was examined for antagonistic activity against VEGF in the same manner as in Example 2. Referring to FIG. 9, the radioactivity measured from ^125I-labeled VEGF associated with fixed Sequence 1 (RRKRRR) (SEQ ID NO: 1) is plotted in the absence of competitors and in the presence of competitors for various VEGF isomers. […]

[4] = target: T3, VEGF8-121 (Homo sapiens, UniProt P15692); test: Inhibition of labeled VEGF8-121 binding to its receptors; details: FIG. 9
T3 construct: made in house; host or cells: E. coli BL21(DE3)pLysS, inclusion bodies
T3 sequence (P15692 34-147 isoform P15692-9): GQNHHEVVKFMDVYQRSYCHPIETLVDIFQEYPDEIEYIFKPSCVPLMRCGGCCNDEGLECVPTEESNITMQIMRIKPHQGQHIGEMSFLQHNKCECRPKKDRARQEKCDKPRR
From the text: as §1, §2

[5] = target: T4, VEGF121 (Homo sapiens, UniProt P15692); test: Inhibition of labeled VEGF121 binding to its receptors; details: heparin-binding domain-deficient isoform, FIG. 9
T4 construct: made in house; host or cells: E. coli BL21(DE3)pLysS, inclusion bodies
T4 sequence (P15692 27-147 isoform P15692-9): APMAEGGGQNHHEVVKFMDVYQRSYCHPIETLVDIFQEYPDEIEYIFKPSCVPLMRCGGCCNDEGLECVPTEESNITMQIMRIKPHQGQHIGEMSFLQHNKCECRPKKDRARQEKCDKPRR
From the text: as §1, §2

[6] = tested on: HM7 (human colon carcinoma cell line); test: Liver metastasis of HM7 cells transplanted into the spleen of nude mice; type: in vivo; details: control group PBS only
From the text: In order to conduct an experiment concerning the metastasis of cancer cells to the liver, cancerous cells were transplanted into the spleen. In this regard, after being anesthetized with diethyl ether, 4-week-old male mice (athymic nude mice, BALB/c/nu/nu, Charles River, Japan) underwent flank incision. […] Four weeks after the injection, the liver was excised from each mouse and measured for weight and the size and number of metastatic nodules formed. Each test group was composed of 6-7 mice. In a student's t-test, a p value less than 0.05 was regarded as being statistically significant. In the test using tetrazolium dye (cell titer 96 Non-radioactive Proliferation Assay Kit, Promega), each peptide was evaluated to have no influence on the growth of the cancer cells (5×10^3 cells/well), so that the possibility that the toxicity of the peptide themselves might inhibit the growth and metastasis of cancer cells could be excluded.

Row | Compound | Kd [1] [µM] | effect on tumor size / growth of human colon carcinoma cells in mice [2] | decrease of tumor size compared to the control (PBS) ([2]; 0.5 μg/100 μl/day) | inhibition of binding of VEGF109 to its receptors [3] | inhibition of binding of VEGF8-121 to its receptors [4] | inhibition of binding of labeled VEGF121 to its receptors [5] | weight of the liver, % of the control group [6] [%] | number of metastatic nodules, % of the control group ([6]; liver) [%]
1 | N=C(N)NCCC[C@H](NC(=O)[C@H](CCCNC(=N)N)NC(=O)[C@H](CCCNC(=N)N)NC(=O)[C@H](CCCNC(=N)N)NC(=O)[C@H](CCCNC(=N)N)NC(=O)[C@@H](N)CCCNC(=N)N)C(N)=O [compound 11, NH2-Arg-Arg-Arg-Arg-Arg-Arg-CONH2] | 22 |  |  |  |  |  |  | 
2 | H-RKKRKR-NH2 [compound 1, NH2-Arg-Lys-Lys-Arg-Lys-Arg-CONH2] | 2 |  |  |  |  |  |  | 
3 | H-RRKRRR-NH2 [compound 8, NH2-Arg-Arg-Lys-Arg-Arg-Arg-CONH2] | 5 | effectively inhibits the growth of human colon carcinoma cells in mice | about 28% | not inhibited | not inhibited | inhibited | 33 | 16
